Where a SMILES comes first, the peptide text is derived from it. Where no end group is shown, it is not given here. [ ]: non-standard residue; d: D form.

The subject of one data set is S. aureus (ATCC 6538). Format: cell-based, Staphylococcus aureus. The note with it: ATCC 6538, 24 h. An excerpt:
(§1) Seven microorganism strains were used to preliminarily evaluate the antimicrobial activity of PSTO2 and its analogues, including Staphylococcus aureus (S. aureus) (ATCC® 6538), methicillin-resistant Staphylococcus aureus (MRSA) (NCTC® 12493), Enterococcus faecalis (E. faecalis) (NCTC® 12697), E. coli (ATCC® 8739), Klebsiella pneumonia (K. pneumonia) (ATCC® 43816), Pseudomonas aeruginosa (P. aeruginosa) (ATCC® CRM 9027), Acinetobacter baumanni (A. baumanni) (BAA® 747), and Candida albicans (C. albicans) (ATCC® 10231). In this study, the strains were cultured in Mueller–Hinton broth (MHB), nutrient broth (NB), and yeast–peptone–dextrose broth (YPD-B) correspondingly at 37 °C, with shaking at 120 rpm. Each peptide was dissolved from 128 μM to 1 μM and mixed with the bacterium at 5 × 10^5 CFU/mL. In this process, bacteria with culture medium were used as the growth control group; PBS was set up as the vehicle control group; sterile culture medium was used as the blank control group; and Norfloxacin at a concentration of 2 mg/mL and amphotericin B at a concentration of 1 mg/mL were set up as the positive control group for bacteria and fungi, respectively.
(§2) After being incubated for 24 h, a Synergy HT plate reader (Bio-Tek, Shoreline, WA, USA) was used to detect the absorbance of each well in the 96-well plate at λ = 550 nm. The concentration at which no visible turbidity could be recorded was the MIC value. Beginning from the MIC value, 10 µL of solution in each clear well was dropped on the sterile agar plates. The plate was checked the next day for colony formation, and the lowest concentration at which no colony growing was recorded as an MBC value.

The next data set concerns E. coli (ATCC 8739). It counts as cell-based, Escherichia coli. The note with it: ATCC 8739, 24 h.
From the text: as §1, §2

For data set [1], the system named is K. pneumonia (ATCC 43816). Format: cell-based, Klebsiella pneumonia. To be noted: ATCC 43816, 24 h.
From the text: as §1, §2

The subject of data set [2] is P. aeruginosa (ATCC 9027). Format: cell-based, Pseudomonas aeruginosa. The note with it: ATCC 9027, 24 h.
From the text: as §1, §2

The next data set concerns C. albicans. It counts as cell-based, Candida albicans. The note with it: 24 h.
From the text: as §1, §2

The next data set deals with HaCat. Format: cell-based. To be noted: 24 h. How it is done: (§3) The percentage of cancer cell survival after being treated with peptides was assessed with 3-(4,5-dimethylthiazol-2-yl-)-2,5-diphenyltetrazolium bromide (MTT). The principle is the reduction process of the yellow tetrazolium to DMSO-soluble formazan crystals caused by the metabolic capability of living cells. All the cancerous and normal cells were obtained from the American Type Culture Collection (Rockville, VA, USA). Human lung cancer NCI-H838 and NCI-H460 were cultured in Roswell Park Memorial Institute (RPMI)-1640 medium (Gibco, Paisley, UK) and mixed with 10% (v/v) fetal bovine serum (FBS) (Gibco, Campinas, Brazil) and 1% penicillin–streptomycin (Gibco, Grand Island, NY, USA) 89/10/1 v/v/v). U251MG and MCF-7 were cultured in Dulbecco’s Modified Eagle medium (DMEM) (Gibco, Paisley, UK) and mixed with 10% FBS and 1% penicillin–streptomycin. HCT 116 was cultured in McCoy’s 5A (modified) medium (Gibco, Paisley, UK) and mixed with 10% FBS and 1% penicillin–streptomycin. MRC-5 and HaCat were cultured in Minimum Essential Medium (MEM) (Gibco, Paisley, UK) and mixed with 10% FBS and 1% penicillin–streptomycin. Cells were cultured and seeded in a 96-well plate at a density of 8000 cells/well with the corresponding medium and incubated for 24 h at 37 °C with 5% CO2. After 24 h of incubation, the cells were starved with a serum-free medium for 4 h at 37 °C. Then, the cells were incubated with different concentrations of peptide solution in a serum-free medium from 1 nM to 100 µM at 37 °C for 24 h. Meanwhile, triton X-100 (0.1%) (Sigma-Aldrich, St. Louis, MO, USA) and PBS were chosen as positive and negative controls. After 10 µL of MTT (5 mg/mL) was added to each well away from light and incubated at 37 °C for 2 h, the formazan generated by mitochondria was dissolved with DMSO. The absorbance was detected at a wavelength of 570 nm by a Synergy HT plate reader (Bio-Tek, Shoreline, WA, USA).

A further data set concerns MRC-5. It counts as cell-based. To be noted: 24 h. Here is the method: as §3
The subject of the next data set is horse red blood cells. Format: cell-based. Here is the method: To assess the haemolytic activity of PSTO2 and its analogues, 2% fresh defibrinated horse red blood cells (TCS Biosciences Ltd., Buckingham, UK) were acquired after being washed and resuspended in sterile PBS. Each peptide was dissolved in PBS to prepare solutions with concentrations ranging from 2 µM to 1024 µM. Subsequently, 100 µL of each peptide solution was mixed with 100 µL of the red blood cell suspension. The red blood cells treated with 1% triton X-100 and sterile PBS in equivalent volumes were set up as the positive and negative control groups, respectively. Then, all the samples were incubated at 37 °C for 2 h. Thereafter, the samples were centrifuged at 900× g for 10 min. Finally, 100 µL of supernatant of each sample was transferred into a 96-well plate, and the absorbance was recorded by a Synergy HT plate reader (Bio-Tek, Shoreline, WA, USA) at a wavelength of 570. The following equation was used to calculate haemolysis activity:Haemolysis activity = (Sample absorbance − Ab)/(Ap − Ab) × 100% where Ab refers to the mean value of absorbance of the negative control (incubated with PBS only), and Ap refers to the mean absorbance value of the positive control (incubated with triton X-100).

By MIC is commonly meant the least concentration at which growth counts as inhibited. The term IC50 denotes the concentration at which inhibition is half-maximal. Consider FLSLIPKAIKAVSALAKKL-NH2 [SR], for which the MBC in the data set on S. aureus (ATCC 6538) came to 2 µM; with E. coli (ATCC 8739), 2 µM; in data set [1], 2 µM; in data set [2], 32 µM; in the data set on C. albicans it was 128 µM. Also, the MIC in the data set with S. aureus (ATCC 6538) stood at 2 µM; in the data set on E. coli (ATCC 8739) it was 2 µM; in data set [1] it was 2 µM; in the data set with C. albicans it was 32 µM. For the same compound, the figures for the IC50 in the data set with HaCat and with MRC-5 were 4.13 µM and 6.98 µM, respectively. Further, the HC10 in the data set with horse red blood cells is 12.60.

Consider `CC[C@H](C)[C@H](NC(=O)[C@H](C)NC(=O)[C@@H](CCCCN)NC(=O)[C@@H]1CCCN1C(=O)[C@@H](NC(=O)[C@H](CC(C)C)NC(=O)[C@H](CO)NC(=O)[C@H](CC(C)C)NC(=O)[C@@H](N)Cc1ccccc1)[C@@H](C)CC)C(=O)N[C@@H](CCCCN)C(=O)N[C@@H](C)C(=O)N[C@H](C(=O)N[C@@H](CO)C(=O)N[C@@H](C)C(=O)N[C@@H](CC(C)C)C(=O)N[C@@H](C)C(=O)N[C@@H](CCCCN)C(=O)N[C@@H](CCCCN)C(=O)N[C@@H](CC(C)C)C(N)=O)C(C)C` [SRD7] (H-FLSLIP[dK]AIKAVSALAKKL-NH2), for which the MBC with S. aureus (ATCC 6538) was 1/1 μM; in the data set on E. coli (ATCC 8739) it was 2 µM; in data set [2] it was 16 µM; with C. albicans it was 64 µM. Further, the MIC in the data set on E. coli (ATCC 8739) was 2 µM; in data set [2], 16 µM; with C. albicans, 32 µM. Besides, the concentration for half-maximal inhibition (IC50) with HaCat is 77.89 µM; in the data set on MRC-5 it was 77.28 µM. Also, in the data set with horse red blood cells, the HC10 turned out to be 74.78.

On to FLSLIPKAIKAVKALAKKL-NH2 [SR2], for which the MBC with S. aureus (ATCC 6538) amounted to 2 µM; in the data set on E. coli (ATCC 8739), 2 µM; in data set [1], 2 µM; in data set [2] it was 32 µM; in the data set on C. albicans it was 64 µM. For the same compound, the MIC with S. aureus (ATCC 6538) is 2 µM; in the data set on E. coli (ATCC 8739), 2 µM; in data set [1] it was 2 µM; in the data set with C. albicans, 32 µM. The IC50 with HaCat is 3.48 µM; in the data set with MRC-5, 6.56 µM. The HC10 with horse red blood cells stood at 6.53.

For `CC[C@H](C)[C@H](NC(=O)[C@H](C)NC(=O)[C@@H](CCCCN)NC(=O)[C@@H]1CCCN1C(=O)[C@@H](NC(=O)[C@H](CC(C)C)NC(=O)[C@H](CO)NC(=O)[C@H](CC(C)C)NC(=O)[C@@H](N)Cc1ccccc1)[C@@H](C)CC)C(=O)N[C@@H](CCCCN)C(=O)N[C@@H](C)C(=O)N[C@H](C(=O)N[C@@H](CCCCN)C(=O)N[C@@H](C)C(=O)N[C@@H](CC(C)C)C(=O)N[C@@H](C)C(=O)N[C@@H](CCCCN)C(=O)N[C@H](CCCCN)C(=O)N[C@@H](CC(C)C)C(N)=O)C(C)C` [SR2D10] (H-FLSLIP[dK]AIKAVKALAK[dK]L-NH2), the MBC in the data set on S. aureus (ATCC 6538) was 1/1 μM; in the data set on E. coli (ATCC 8739), 2 µM; in data set [1], 4 µM; in data set [2] it was 32 µM; with C. albicans, 128 µM. The MIC in the data set on E. coli (ATCC 8739) turned out to be 2 µM; in data set [1] it was 4 µM; in data set [2], 32 µM; in the data set on C. albicans it was 64 µM. Besides, the IC50 was determined as 84.03 µM in the data set with HaCat and 74.39 µM with MRC-5. Besides, the HC10 in the data set with horse red blood cells is 75.24.

These data come from PMC11360180, “Enhancement of Antimicrobial Function by L/D-Lysine Substitution on a Novel Broad-Spectrum Antimicrobial Peptide, Phylloseptin-TO2: A Structure-Related Activity Research Study” (Pharmaceutics, 2024).
